Assay results taken from paper PMC3618516, “A Systematic Screen of FDA-Approved Drugs for Inhibitors of Biological Threat Agents” (PLoS ONE, 2013).
Read-outs that look alike come from different tables or passages of the source.

How the values were obtained:
EBOV [1] = assay type: cell-based, Ebola virus
MARV = assay: organism not typed; assay type: cell-based, Marburg virus; settings: for EC50: read-out: EC50, MARV Replication; for EC90: read-out: EC90, MARV Replication
[2] = test system: LASV GP-pseudotyped vesicular stomatitis virus; assay: microbe, parasite or virus in culture; assay type: cell-based, Lassa virus
[3] = test system: MARV GP-pseudotyped vesicular stomatitis virus; assay: microbe, parasite or virus in culture; assay type: cell-based, Marburg virus; settings: Vesicular stomatitis virus; for EC50: read-out: EC50, MARV Entry; for EC90: read-out: EC90, MARV Entry
LASV = assay type: cell-based, Lassa virus
EBOV [4] = assay: microbe, parasite or virus in culture; assay type: cell-based, Ebola virus; settings: Zaire ebolavirus; for EC50: read-out: EC50, EBOV Replication; for EC90: read-out: EC90, EBOV Replication
[5] = test system: EBOV GP-pseudotyped vesicular stomatitis virus; assay: microbe, parasite or virus in culture; assay type: cell-based, Ebola virus; settings: Zaire ebolavirus; for EC50: read-out: EC50, EBOV Entry; for EC90: read-out: EC90, EBOV Entry
[6] = test system: EBOV virus-like particles; assay type: cell-based, Ebola virus
EBOV [7] = assay type: cell-based, Ebola virus; remark: listed apart in the source
[8] = mouse, in vivo
in vivo = settings: male, Balb/c, mouse, ip, 90 mg/kg
Francisella tularensis [9] = assay: microbe, parasite or virus in culture; assay type: cell-based; settings: J774.A1, 15 h, read-out: Fransciella tularensis ICR (% protection)
Francisella tularensis [10] = assay type: cell-based; settings: 50 µM
Coxiella burnetii = assay: microbe, parasite or virus in culture; assay type: cell-based; settings: Vero, 168 h, read-out: Coxiella burnetii ICR (% protection)
Bacillus anthracis [11] = test system: Bacillus anthracis; design: species or system Balb/c mice; settings: in vivo
Bacillus anthracis [12] = assay type: cell-based; settings: 50 µM
Bacillus anthracis [13] = assay: microbe, parasite or virus in culture; assay type: cell-based; settings: J774.A1, 15 h, read-out: Bacillus anthracis ICR (% protection)
[14] = cited from earlier work
[15] = Vesicular stomatitis virus, HEK-293T, 50 µM, read-out: LASV VPEN (% activity)
[16] = HEK-293T, read-out: MASV VPEN (% activity)
[17] = HEK-293T, read-out: EBOV VPEN (% activity)

CCN(CC)Cc1cc(Nc2ccnc3cc(Cl)ccc23)ccc1O [Amodiaquine]
EBOV VR (EBOV [1]; 10 µM): −
EC50 (MARV): 8.3 µM
EC90 (MARV): 16 µM
inhibition at 10 µM ([2]; Vesicular stomatitis virus, HEK-293T, 10 µM, read-out: LASV VPEN (% activity)): 51%
inhibition at 10 µM ([3]; HEK-293T, 10 µM, read-out: MASV VPEN (% activity)): 97%
EC50 [3]: 2.3 µM
EC90 [3]: 6.5 µM
LASV VR (LASV; 10 µM): −
EC50 (EBOV [4]): 8.4 µM
EC90 (EBOV [4]): 17 µM
inhibition at 10 µM ([5]; HEK-293T, 10 µM, read-out: EBOV VPEN (% activity)): 99%
EC50 [5]: 2.6 µM
EC90 [5]: 8 µM
effect on number of VLPs bound per cell [6]: no significant difference in binding

CCN(CC)CCCC(C)Nc1ccnc2cc(Cl)ccc12 (stereo not drawn) [Chloroquine]
co-localization of virus particles with EEA1 / LAMP1 (EBOV [7]): most particles were now associated with EEA1 and very few particles were co-localized with LAMP1
Apparent Css ([8]; male, Balb/c): ~ 2.5 μg/ml
apparent steady state concentration ([8]; male, Balb/c): 2,500 ng/mL
time to apparent steady state after initiating treatment ([8]; male, Balb/c): 35 to 40 h
survival of mice on repeat dosing (tolerability) [8]: all mice survived
EBOV VR (EBOV [1]; 50 µM): +
EC50 (MARV): 15 µM
EC90 (MARV): 21 µM
AUC (in vivo): 23000 ng·h/mL
Tmax (in vivo): 0.5 h
half-life (in vivo): ~7 h
Cmax (in vivo; Cmax): 5330 ng/mL
inhibition at 50 µM [2, 15]: 34%
inhibition at 50 µM [3, 16]: 97%
EC50 [3]: 5.5 µM
EC90 [3]: 24 µM
LASV VR (LASV; 50 µM): −
EC50 (EBOV [4]): 16 µM
EC90 (EBOV [4]): 25 µM
inhibition at 50 µM [5, 17]: 97%
EC50 [5]: 4.7 µM
EC90 [5]: 43 µM
effect on number of VLPs bound per cell [6]: no significant difference in binding

CC[C@H]1OC(=O)[C@H](C)[C@@H](O[C@H]2C[C@@](C)(OC)[C@@H](O)[C@H](C)O2)[C@H](C)[C@@H](O[C@@H]2O[C@H](C)C[C@H](N(C)C)[C@H]2O)[C@](C)(O)C[C@@H](C)[C@@H]2N[C@@H](COCCOC)O[C@H]([C@H]2C)[C@]1(C)O [Dirithromycin]
inhibition at 50 µM (Francisella tularensis [9]): 88%
EBOV VR (EBOV [1]; 50 µM): −
Fransciella tularensis Broth (% protection) (Francisella tularensis [10]): +
LASV VPEN (% activity) ([2]; 50 µM): no activity
inhibition at 50 µM [2, 15]: -11%
inhibition of growth at 50 µM (Coxiella burnetii): 0%
inhibition at 50 µM [3, 16]: 91%
LASV VR (LASV; 50 µM): −
protection of mice against BA infection (% of the mice) (Bacillus anthracis [11]; mouse): 20%
Bacillus anthracis Broth (% protection) (Bacillus anthracis [12]): +
inhibition at 50 µM [5, 17]: 99%
inhibition at 50 µM (Bacillus anthracis [13]): 92%

CCn1cc(C(=O)O)c(=O)c2cc(F)c(N3CCNC(C)C3)c(F)c21 (stereo not drawn) [Lomefloxacin]
inhibition at 50 µM (Francisella tularensis [9]): 98%
Fransciella tularensis Broth (% protection) (Francisella tularensis [10]): +
inhibition of growth at 50 µM (Coxiella burnetii): 100%
maximum concentration (Cmax) ([14]; following a 400 mg dose in humans): 2000 to 4000 ng/mL
bioavailability ([14]; humans): 95–98%
efficacy in preventing mouse death following BA infection (rank) (Bacillus anthracis [11]): most efficacious drug
Bacillus anthracis Broth (% protection) (Bacillus anthracis [12]): +
inhibition at 50 µM (Bacillus anthracis [13]): 95%
